Assay results reported in PMC11277018, “Recombinant Expression and Characterization of a Novel Thermo-Alkaline Lipase with Increased Solvent Stability from the Antarctic Thermophilic Bacterium Geobacillus sp. ID17” (International Journal of Molecular Sciences, 2024).
Where two headings read alike, the source gives them in different places.

Tested on: T1, Lip7
T1 construct: theoretical 43 kDa, 47 kDa by SEC, 37 kDa by SDS-PAGE; monomer
Test: spectrophotometric p-nitrophenol release, allosteric sigmoidal fit
Assay type: biochemical, Geobacillus sp. ID17
Conditions: 25 °C, pH 8.0, 50 mM potassium phosphate, read-out: K1/2
Excerpt: spectrophotometric p-nitrophenol release, allosteric sigmoidal fit on Lip7

CC(=O)Oc1ccc([N+](=O)[O-])cc1 [p-nitrophenyl acetate]
Km (2% (v/v) Triton X-100, Hill n 1.9 ± 0.5): 3.4 ± 0.7 mM

CCCCCCCCCC(=O)Oc1ccc([N+](=O)[O-])cc1 [p-nitrophenyl decanoate]
Km (2% (v/v) Triton X-100, Hill n 3.1 ± 1.4): 2.2 ± 0.3 mM

CCCCCCCCCCCC(=O)Oc1ccc([N+](=O)[O-])cc1 [p-nitrophenyl laurate]
Km (2% (v/v) Triton X-100 (mixed micelles; interfacial), Hill n 1.8 ± 0.4): 1.7 ± 0.4 mM

CCCCCCCCCCCCCC(=O)Oc1ccc([N+](=O)[O-])cc1 [p-nitrophenyl myristate]
Km (2% (v/v) Triton X-100, Hill n 3.2 ± 0.6): 1.4 ± 0.1 mM

CCCCCCCC(=O)Oc1ccc([N+](=O)[O-])cc1 [p-nitrophenyl octanoate]
Km (2% (v/v) Triton X-100, Hill n 2.4 ± 0.8): 1.6 ± 0.3 mM
